Measurements from patent US9546152B2 (MERCK SHARP & DOHME CORP., priority 2012, dated 2017).

Tests used:
[1] = target: T1, human orexin-2 receptor (Homo sapiens (Human), UniProt O43614); assay: radioligand binding assay, orexin-2 receptor; conditions: membranes prepared from CHO cells expressing the OX2 receptor; read-out: hOX2R BIND hKi
Description: (§1) In a typical experiment the OX1 and OX2 receptor antagonistic activity of the compounds of the present invention was determined in accordance with the following experimental method. For intracellular calcium measurements, Chinese hamster ovary (CHO) cells expressing the rat orexin-1 receptor or the human orexin-2 receptor, are grown in Iscove's modified DMEM containing 2 mM L-glutamine, […], 1% hypoxanthine-thymidine supplement, 100 U/ml penicillin, 100 μg/ml streptomycin and 10% heat-inactivated fetal calf serum (FCS). The cells are seeded at 20,000 cells/well into Becton-Dickinson black 384-well clear bottom sterile plates coated with poly-D-lysine. All reagents were from GIBCO-Invitrogen Corp. The seeded plates are incubated overnight at 37° C. and 5% CO2. Ala-6,12 human orexin-A as the agonist is prepared as a 1 mM stock solution in 1% bovine serum albumin (BSA) and diluted in assay buffer (HBSS containing 20 mM HEPES, 0.1% BSA and 2.5 mM probenecid, pH7.4) for use in the assay at a final concentration of 70 pM. Test compounds are prepared as 10 mM stock solution in DMSO, then diluted in 384-well plates, first in DMSO, then assay buffer. On the day of the assay, cells are washed 3 times with 100 μl assay buffer and then incubated for 60 min (37° C., 5% CO2) in 60 μl assay buffer containing 1 μM Fluo-4AM ester, 0.02% pluronic acid, and 1% BSA. The dye loading solution is then aspirated and cells are washed 3 times with 100 μl assay buffer. 30 μl of that same buffer is left in each well. Within the Fluorescent Imaging Plate Reader (FLIPR, Molecular Devices), test compounds are added to the plate in a volume of 25 μl, incubated for 5 min and finally 25 μl of agonist is added. Fluorescence is measured for each well at 1 second intervals for 5 minutes and the height of each fluorescence peak is compared to the height of the fluorescence peak induced by 70 pM Ala-6,12 orexin-A with buffer in place of antagonist. […] Alternatively, compound potency can be assessed by a radioligand binding assay (described in Bergman et. al. Bioorg. Med. Chem. Lett. 2008, 18, 1425-1430) in which the inhibition constant (Ki) is determined in membranes prepared from CHO cells expressing either the OX1 or OX2 receptor. The intrinsic orexin receptor antagonist activity of a compound which may be used in the present invention may be determined by these assays.

[2] = target: T1, human orexin-2 receptor; assay: FLIPR Ca2+ Flux Assay, orexin-2 receptor; type: cell-based; conditions: CHO cells expressing the human orexin-2 receptor; agonist 70 pM Ala-6,12 human orexin-A; read-out: hOX2R FLIPR IC50
Description: as §1

[3] = target: rat orexin-1 receptor (Rattus norvegicus (Rat), UniProt P56718); assay: FLIPR Ca2+ Flux Assay, orexin-1 receptor; type: cell-based; conditions: CHO cells expressing the rat orexin-1 receptor; agonist 70 pM Ala-6,12 human orexin-A; read-out: hOX1R FLIPR IC50
Description: as §1

T1 sequence (O43614 whole entry): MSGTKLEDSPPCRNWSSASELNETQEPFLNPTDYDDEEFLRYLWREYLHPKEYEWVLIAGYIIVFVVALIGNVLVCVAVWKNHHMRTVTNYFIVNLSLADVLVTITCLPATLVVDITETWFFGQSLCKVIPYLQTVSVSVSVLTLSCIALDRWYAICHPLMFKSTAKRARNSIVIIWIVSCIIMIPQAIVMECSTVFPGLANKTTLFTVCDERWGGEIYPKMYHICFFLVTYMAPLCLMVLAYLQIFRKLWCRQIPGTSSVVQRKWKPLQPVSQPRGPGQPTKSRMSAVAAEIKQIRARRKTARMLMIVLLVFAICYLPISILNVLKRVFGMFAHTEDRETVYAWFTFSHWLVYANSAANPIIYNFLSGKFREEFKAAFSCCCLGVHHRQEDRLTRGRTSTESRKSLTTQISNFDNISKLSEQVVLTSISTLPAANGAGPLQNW
rat orexin-1 receptor, sequence (P56718 whole entry): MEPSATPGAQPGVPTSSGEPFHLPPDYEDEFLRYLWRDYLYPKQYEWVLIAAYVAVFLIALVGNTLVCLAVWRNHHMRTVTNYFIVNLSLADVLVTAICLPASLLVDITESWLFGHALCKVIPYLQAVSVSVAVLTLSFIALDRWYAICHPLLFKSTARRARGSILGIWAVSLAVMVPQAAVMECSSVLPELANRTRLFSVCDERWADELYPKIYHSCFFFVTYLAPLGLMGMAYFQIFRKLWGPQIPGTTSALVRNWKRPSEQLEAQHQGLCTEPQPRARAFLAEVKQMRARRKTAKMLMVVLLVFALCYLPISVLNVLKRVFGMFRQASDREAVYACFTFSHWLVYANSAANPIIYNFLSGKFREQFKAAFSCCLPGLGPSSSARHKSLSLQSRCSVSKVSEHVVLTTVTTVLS

COc1c(C#N)ccnc1O[C@@H]1CC[C@@H](C)N(C(=O)c2ccccc2C2CCC2)C1 [Example 105, 2-({(3R,6R)-1-[(2-cyclobutylphenyl)carbonyl]-6-methylpiperidin-3-yl}oxy)-3-methoxypyridine-4-carbonitrile]
Ki [1]: 0.2 nM
IC50 [2]: 36 nM
IC50 [3]: 3500 nM

Cc1c(C#N)ccnc1O[C@@H]1CC[C@@H](C)N(C(=O)c2sccc2-c2cscn2)C1 [Example 38, 3-methyl-2-{[(3R,6R)-6-methyl-1-{[3-(1,3-thiazol-4-yl)thiophen-2-yl]carbonyl}piperidin-3-yl]oxy}pyridine-4-carbonitrile]
Ki [1]: 0.9 nM
IC50 [2]: 11 nM
IC50 [3]: 1640 nM

Cc1c(C#N)ccnc1O[C@@H]1CC[C@@H](C)N(C(=O)c2ccc(F)cc2-c2nccs2)C1 [Example 34, 2-{[(3R,6R)-1-{[4-fluoro-2-(1,3-thiazol-2-yl)phenyl]carbonyl}-6-methylpiperidin-3-yl]oxy}-3-methylpyridine-4-carbonitrile]
Ki [1]: 0.2 nM
IC50 [2]: 9 nM
IC50 [3]: 702 nM

Cc1c(C#N)ccnc1O[C@@H]1CC[C@@H](C)N(C(=O)c2ccsc2-c2nccs2)C1 [Example 32, 3-methyl-2-{[(3R,6R)-6-methyl-1-{[2-(1,3-thiazol-2-yl)thiophen-3-yl]carbonyl}piperidin-3-yl]oxy}pyridine-4-carbonitrile]
Ki [1]: 0.7 nM
IC50 [2]: 29 nM
IC50 [3]: 1880 nM

Cc1c(C#N)ccnc1O[C@@H]1CC[C@@H](C)N(C(=O)c2cc(C#N)ccc2-n2nccn2)C1 [Example 71, 2-{[(3R,6R)-1-{[5-cyano-2-(2H-1,2,3-triazol-2-yl)phenyl]carbonyl}-6-methylpiperidin-3-yl]oxy}-3-methylpyridine-4-carbonitrile]
Ki [1]: 5.5 nM
IC50 [2]: 40 nM
IC50 [3]: 1850 nM

COc1ccc(C(=O)N2C[C@H](Oc3nccc(C#N)c3C)CC[C@H]2C)c(-c2ccccc2)n1 [Example 78, 2-({(3R,6R)-1-[(6-methoxy-2-phenylpyridin-3-yl)carbonyl]-6-methylpiperidin-3-yl}oxy)-3-methylpyridine-4-carbonitrile]
Ki [1]: 1.2 nM
IC50 [2]: 92 nM
IC50 [3]: 1260 nM

COc1c(C#N)ccnc1O[C@@H]1CC[C@@H](C)N(C(=O)c2ccc(F)cc2-c2ncccn2)C1 [Example 110, 2-({(3R,6R)-1-[(4-fluoro-2-pyrimidin-2-ylphenyl)carbonyl]-6-methylpiperidin-3-yl}oxy)-3-methoxypyridine-4-carbonitrile]
Ki [1]: 0.6 nM
IC50 [2]: 39 nM
IC50 [3]: 1240 nM

Cc1c(C#N)ccnc1O[C@@H]1CC[C@@H](C)N(C(=O)c2c(F)cccc2-n2nccn2)C1 [Example 11, 2-{[(3R,6R)-1-{[2-fluoro-6-(2H-1,2,3-triazol-2-yl)phenyl]carbonyl}-6-methylpiperidin-3-yl]oxy}-3-methylpyridine-4-carbonitrile]
Ki [1]: 0.3 nM
IC50 [2]: 10 nM
IC50 [3]: 611 nM

Cc1c(C#N)ccnc1O[C@@H]1CC[C@@H](C)N(C(=O)c2cc(F)ccc2-c2nccs2)C1 [Example 28, 2-{[(3R,6R)-1-{[5-fluoro-2-(1,3-thiazol-2-yl)phenyl]carbonyl}-6-methylpiperidin-3-yl]oxy}-3-methylpyridine-4-carbonitrile]
Ki [1]: 0.1 nM
IC50 [2]: 5 nM
IC50 [3]: 412 nM

Cc1c(C#N)ccnc1O[C@@H]1CC[C@@H](C)N(C(=O)c2ccsc2-n2nccn2)C1 [Example 39, 3-methyl-2-{[(3R,6R)-6-methyl-1-{[2-(2H-1,2,3-triazol-2-yl)thiophen-3-yl]carbonyl}piperidin-3-yl]oxy}pyridine-4-carbonitrile]
Ki [1]: 0.7 nM
IC50 [2]: 9 nM
IC50 [3]: 1510 nM

Cc1c(C#N)ccnc1O[C@@H]1CC[C@@H](C)N(C(=O)c2ccccc2-n2nccn2)C1 [Example 1, 3-Methyl-2-{[(3R,6R)-6-methyl-1-{[2-(2H-1,2,3-triazol-2-yl)phenyl]carbonyl}piperidin-3-yl]oxy}pyridine-4-carbonitrile]
Ki [1]: 0.4 nM
IC50 [2]: 8 nM
IC50 [3]: 996 nM

Cc1c(C#N)ccnc1O[C@@H]1CC[C@@H](C)N(C(=O)c2cnc(Cl)cc2-n2nccn2)C1 [Example 67, 2-{[(3R,6R)-1-{[6-chloro-4-(2H-1,2,3-triazol-2-yl)pyridin-3-yl]carbonyl}-6-methylpiperidin-3-yl]oxy}-3-methylpyridine-4-carbonitrile]
Ki [1]: 4.7 nM
IC50 [2]: 35 nM
IC50 [3]: > 10000 nM

Cc1c(C#N)ccnc1O[C@@H]1CC[C@@H](C)N(C(=O)c2cc(F)ncc2-c2cncs2)C1 [Example 25, 2-{[(3R,6R)-1-{[2-fluoro-5-(1,3-thiazol-5-yl)pyridin-4-yl]carbonyl}-6-methylpiperidin-3-yl]oxy}-3-methylpyridine-4-carbonitrile]
Ki [1]: 6.1 nM
IC50 [2]: 43 nM
IC50 [3]: > 10000 nM

Cc1c(C#N)ccnc1O[C@@H]1CC[C@@H](C)N(C(=O)c2ccccc2Oc2ccccc2)C1 [Example 30, 3-methyl-2-({(3R,6R)-6-methyl-1-[(2-phenoxyphenyl)carbonyl]piperidin-3-yl}oxy)pyridine-4-carbonitrile]
Ki [1]: 2.3 nM
IC50 [2]: 46 nM
IC50 [3]: > 10000 nM

Cc1c(C#N)ccnc1O[C@@H]1CC[C@@H](C)N(C(=O)c2ccc(CO)cc2-c2ccccc2)C1 [Example 54, 2-{[(3R,6R)-1-{[5-(hydroxymethyl)biphenyl-2-yl]carbonyl}-6-methylpiperidin-3-yl]oxy}-3-methylpyridine-4-carbonitrile]
Ki [1]: 3.2 nM
IC50 [2]: 37 nM
IC50 [3]: 1390 nM

COc1ccc(C(=O)N2C[C@H](Oc3nccc(C#N)c3OC)CC[C@H]2C)c(-n2nccn2)n1 [Example 104, 3-methoxy-2-{[(3R,6R)-1-{[6-methoxy-2-(2H-1,2,3-triazol-2-yl)pyridin-3-yl]carbonyl}-6-methylpiperidin-3-yl]oxy}pyridine-4-carbonitrile]
Ki [1]: 2 nM
IC50 [2]: 29 nM
IC50 [3]: > 10000 nM

Cc1c(C#N)ccnc1O[C@@H]1CC[C@@H](C)N(C(=O)c2cc(Cl)ccc2-n2nccn2)C1 [Example 3, 2-{[(3R,6R)-1-{[5-chloro-2-(2H-1,2,3-triazol-2-yl)phenyl]carbonyl}-6-methylpiperidin-3-yl]oxy}-3-methylpyridine-4-carbonitrile]
Ki [1]: 11.7 nM
IC50 [2]: 128 nM
IC50 [3]: 4730 nM

Cc1c(C#N)ccnc1O[C@@H]1CC[C@@H](C)N(C(=O)c2ccccc2N2CCCC2)C1 [Example 29, 3-methyl-2-({(3R,6R)-6-methyl-1-[(2-pyrrolidin-1-ylphenyl)carbonyl]piperidin-3-yl}oxy)pyridine-4-carbonitrile]
Ki [1]: 3.4 nM
IC50 [2]: 29 nM
IC50 [3]: 3100 nM

Cc1c(C#N)ccnc1O[C@@H]1CC[C@@H](C)N(C(=O)c2ccccc2C(F)(F)F)C1 [Example 17, 3-methyl-2-{[(3R,6R)-6-methyl-1-{[2-(trifluoromethyl)phenyl]carbonyl}piperidin-3-yl]oxy}pyridine-4-carbonitrile]
Ki [1]: 3.1 nM
IC50 [2]: 21 nM
IC50 [3]: 4960 nM

COc1c(C#N)ccnc1O[C@@H]1CC[C@@H](C)N(C(=O)c2c(F)cccc2-n2nccn2)C1 [Example 100, 2-{[(3R,6R)-1-{[2-fluoro-6-(2H-1,2,3-triazol-2-yl)phenyl]carbonyl}-6-methylpiperidin-3-yl]oxy}-3-methoxypyridine-4-carbonitrile]
Ki [1]: 0.3 nM
IC50 [2]: 25 nM
IC50 [3]: 1440 nM

COc1ccc(C(=O)N2C[C@H](Oc3nccc(C#N)c3C)CC[C@H]2C)c(-c2cnn(C)c2)n1 [Example 80, 2-{[(3R,6R)-1-{[6-methoxy-2-(1-methyl-1H-pyrazol-4-yl)pyridin-3-yl]carbonyl}-6-methylpiperidin-3-yl]oxy}-3-methylpyridine-4-carbonitrile]
IC50 [2]: 171 nM
IC50 [3]: 10000 nM

COc1c(C#N)ccnc1O[C@@H]1CC[C@@H](C)N(C(=O)c2ccsc2-c2ncccn2)C1 [Example 108, 3-methoxy-2-({(3R,6R)-6-methyl-1-[(2-pyrimidin-2-ylthiophen-3-yl)carbonyl]piperidin-3-yl}oxy)pyridine-4-carbonitrile]
IC50 [2]: 14 nM
IC50 [3]: 713 nM
